# Assay results from PubChem BioAssay (NCI).
#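 Method: 48-hour compound exposure of cells in 96-well plates, five concentrations, linear interpolation of endpoints. GI50: concentration for 50% inhibition of growth. TGI denotes the concentration required for complete inhibition of growth.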
# Key:
# Assay in all cases: DTP human tumour cell line panel, 48 h
# [1] = test system: MOLT-4 leukemia
# [2] = test system: HOP-92 NSCLC
# [3] = test system: PC-3 prostate
# [4] = test system: SNB-19 CNS
# [5] = test system: DU-145 prostate
# [6] = test system: EKVX NSCLC
# [7] = test system: COLO 205 colon
# [8] = test system: SN12C renal
# [9] = test system: UACC-257 melanoma
# [10] = test system: NCI-H23 lung
Compound,GI50 [1] [µM],TGI [1] [µM],GI50 [2] [µM],TGI [2] [µM],GI50 [3] [µM],TGI [3] [µM],GI50 [4] [µM],TGI [4] [µM],GI50 [5] [µM],TGI [5] [µM],GI50 [6] [µM],TGI [6] [µM],GI50 [7] [µM],TGI [7] [µM],GI50 [8] [µM],TGI [8] [µM],GI50 [9] [µM],TGI [9] [µM],GI50 [10] [µM],TGI [10] [µM]
CC1=C(C(=O)Nc2ccc(Cl)c(Cl)c2)C(c2cccc(O)c2)NC(=S)N1 (stereo not given),16.8,> 50,13.6,35.2,9.54,31.4,11.4,30.3,7.28,14.5,9.38,21.4,7.09,14.6,8.66,20.1,12.5,> 50,,
COc1cc2c(cc1C)NC(=O)/C2=C/c1c(C)nc2sc(C)cn12,34.4,> 100,22.1,> 100,34.3,> 100,> 100,> 100,> 100,> 100,49.2,> 100,73.6,> 100,74.5,> 100,62.3,> 100,61.7,> 100
O=C(/C=C/c1ccc2c(c1)OCO2)c1ccccc(=O)c1O,,> 100,,72.9,,> 100,,51.8,,46.7,,> 100,,20.2,,> 100,,53.1,,
N=C1N=Nc2nc(C3(c4nc5n(c4O)C(=N)N=N5)Cc4ccccc4C3=O)c(O)n21 (stereo not given),,> 100,,> 100,,> 100,,> 100,,> 100,,> 100,,> 100,,> 100,,> 100,,> 100
CCN1CCN(Cc2ccc3cc(C(=O)Nc4cc(NC(=O)c5ccc6c(c5)OCCO6)ccc4F)ccc3n2)CC1,0.0504,2.23,0.0555,0.557,0.0593,11.6,0.165,11.2,0.0371,1.18,0.112,1.79,0.0553,1.51,0.0524,1.82,0.133,10.5,0.121,5.27
C#CCOc1c(OC)cc(C(=O)/C(C)=C/c2cccc(N=[N+]=[N-])c2)cc1OC,0.362,> 100,0.196,9.11,0.132,> 100,0.333,> 100,0.296,> 100,0.517,> 100,0.3,2.98,0.677,> 100,,,0.632,> 100
O=C1C=CC(=O)N1CCCCCCCCCCN1C(=O)C=CC1=O,8.62,48.6,20.8,37,18.1,36.5,37.6,> 100,15.8,29.2,19.4,39.2,2.15,5.62,15.1,29.5,11.5,24.8,15.6,31.6
